Experimental data as given in patent US20250215030A1, “STAT MODULATORS AND USES THEREOF” (Recludix Pharma, Inc., priority 2022, published 2025).

Columns and labels:
[1] = molecular target: T1, Recombinant STAT3 protein (STAT3(G127-I722)) (Homo sapiens, UniProt P40763); assay: STAT3 Fluorescence Polarization (FP) Assay; type: binding; conditions: STAT3(G127-I722) 25 nM, probe 5-FAM-GpYLPQTV-NH2 2 nM, 45-minute incubation
T1 construct: STAT3(G127-I722)
How it was run: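 Serially diluted compounds (1% DMSO) were mixed with 2 nM fluorescent phosphotyrosine peptide and 25 nM STAT3 construct G127-I722, pH 7.4, incubated 45 min at room temperature. IC50 values from fitted polarization curves are reported as categories A (≤100 nM), B, C, D (>10 μM).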

[2] = molecular target: T2, Recombinant STAT6 protein (STAT6(W123-T658)) (Homo sapiens, UniProt P42226); assay: STAT6 Fluorescence Polarization (FP) Assay; type: binding; conditions: STAT6(W123-T658) 250 nM, probe 5-FAM-ApYKPFQDLI-NH2 2 nM, 45-minute incubation
T2 construct: STAT6(W123-T658)
T2 sequence (P42226 123-658): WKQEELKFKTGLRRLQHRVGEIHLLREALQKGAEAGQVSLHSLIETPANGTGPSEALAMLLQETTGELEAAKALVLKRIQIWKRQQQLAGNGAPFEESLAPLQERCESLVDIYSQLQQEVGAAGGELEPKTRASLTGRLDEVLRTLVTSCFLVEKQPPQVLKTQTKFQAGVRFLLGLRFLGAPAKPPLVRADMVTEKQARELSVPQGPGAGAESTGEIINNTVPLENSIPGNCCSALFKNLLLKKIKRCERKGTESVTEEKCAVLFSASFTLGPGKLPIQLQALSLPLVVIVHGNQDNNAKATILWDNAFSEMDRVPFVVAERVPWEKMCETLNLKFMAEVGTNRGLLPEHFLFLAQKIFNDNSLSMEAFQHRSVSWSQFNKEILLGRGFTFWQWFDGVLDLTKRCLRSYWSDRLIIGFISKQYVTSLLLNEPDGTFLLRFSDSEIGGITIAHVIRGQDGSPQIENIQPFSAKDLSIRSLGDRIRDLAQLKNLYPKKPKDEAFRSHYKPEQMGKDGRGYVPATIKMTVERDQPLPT
How it was run: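 Competitive displacement of a fluorescent phosphotyrosine peptide (2 nM) from recombinant STAT6 W123-T658 (250 nM), 45 min at room temperature in 10 mM HEPES pH 7.4, 50 mM NaCl, 2 mM DTT. mP fitted against log compound for IC50, grouped A (≤300 nM) to D (>30 μM).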

T1 sequence (P40763 127-722, species assumed): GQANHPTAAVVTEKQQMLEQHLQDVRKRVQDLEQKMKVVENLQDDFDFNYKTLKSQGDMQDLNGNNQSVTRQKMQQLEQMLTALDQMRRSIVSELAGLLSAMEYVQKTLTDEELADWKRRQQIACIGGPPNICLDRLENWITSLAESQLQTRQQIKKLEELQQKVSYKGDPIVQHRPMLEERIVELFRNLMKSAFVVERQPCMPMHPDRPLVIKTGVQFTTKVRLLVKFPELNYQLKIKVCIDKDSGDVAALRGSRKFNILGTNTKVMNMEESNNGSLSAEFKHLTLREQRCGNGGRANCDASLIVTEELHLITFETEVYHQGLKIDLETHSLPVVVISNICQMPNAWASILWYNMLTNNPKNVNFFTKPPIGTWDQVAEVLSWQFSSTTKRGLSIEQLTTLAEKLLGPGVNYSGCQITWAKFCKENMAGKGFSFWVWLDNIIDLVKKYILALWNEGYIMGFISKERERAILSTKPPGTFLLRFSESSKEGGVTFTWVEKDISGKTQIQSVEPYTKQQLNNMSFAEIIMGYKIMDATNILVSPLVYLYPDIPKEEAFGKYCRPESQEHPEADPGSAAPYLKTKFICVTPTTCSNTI

| SMILES | IC50 [1] | IC50 [2] |
| --- | --- | --- |
| C[C@]12CC(NC(=O)c3cc4cc(C(F)(F)P(=O)(O)O)ccc4s3)C(=O)N3[C@H](CC[C@H]3C(=O)N3CC(c4cccnc4)C3)[C@H]1C2 (stereo partly drawn) [Compound 37, (difluoro(2-(((3S,6S,7aS,8aR,9aR)-7a-methyl-5-oxo-3-(3-(pyridin-3-yl)azetidine-1-carbonyl)decahydro-1H-cyclopropa[d]pyrrolo[1,2-a]azocin-6-yl)carbamoyl)benzo[b]thiophen-5-yl)methyl)phosphonic acid] | < 100 nM | 3000 to 30000 nM |
| O=C(N[C@H]1C[C@@H]2C[C@@H]2C[C@H]2CC[C@@H](C(=O)N[C@@H]3CCN(c4ccccn4)C3)N2C1=O)c1cc2cc(C(F)(F)P(=O)(O)O)ccc2s1 [Compound 39, (difluoro(2-(((3S,6S,7aS,8aR,9aR)-5-oxo-3-(((R)-1-(pyridin-2-yl)pyrrolidin-3-yl)carbamoyl)decahydro-1H-cyclopropa[d]pyrrolo[1,2-a]azocin-6-yl)carbamoyl)benzo[b]thiophen-5-yl)methyl)phosphonic acid] | < 100 nM | 3000 to 30000 nM |
| CC(=O)N1CC2(C1)CN(C(=O)[C@@H]1CC[C@@H]3C[C@H]4C[C@H]4C[C@H](NC(=O)c4cc5cc(C(F)(F)P(=O)(O)O)ccc5s4)C(=O)N31)C2 [Compound 40, ((2-(((3S,6S,7aS,8aR,9aR)-3-(6-acetyl-2,6-diazaspiro[3.3]heptane-2-carbonyl)-5-oxodecahydro-1H-cyclopropa[d]pyrrolo[1,2-a]azocin-6-yl)carbamoyl)benzo[b]thiophen-5-yl)difluoromethyl)phosphonic acid] | < 100 nM | 300 to 3000 nM |
| O=C(N[C@H]1C[C@@H]2C[C@@H]2C[C@H]2CC[C@@H](C(=O)N3CCN(C(=O)C4COC4)CC3)N2C1=O)c1cc2cc(C(F)(F)P(=O)(O)O)ccc2s1 [Compound 42, (difluoro(2-(((3S,6S,7aS,8aR,9aR)-3-(4-(oxetane-3-carbonyl)piperazine-1-carbonyl)-5-oxodecahydro-1H-cyclopropa[d]pyrrolo[12-a]azocin-6-yl)carbamoyl)benzo[b]thiophen-5-yl)methyl)phosphonic acid] | 100 to 1000 nM | 300 to 3000 nM |
| O=C(N[C@H]1C[C@@H]2C[C@@H]2C[C@H]2CC[C@@H](C(=O)N3CC(n4ccnc4)C3)N2C1=O)c1ccc2ccc(C(F)(F)P(=O)(O)O)cc2c1 [Compound 46, ((7-(((3S,6S,7aS,8aR,9aR)-3-(3-(1H-imidazol-1-yl)azetidine-1-carbonyl)-5-oxodecahydro-1H-cyclopropa[d]pyrrolo[1,2-a]azocin-6-yl)carbamoyl)naphthalen-2-yl)difluoromethyl)phosphonic acid] | < 100 nM | 300 to 3000 nM |
| O=C(N[C@H]1C[C@H]2C[C@H]2C[C@H]2CC[C@@H](C(=O)N[C@@H]3CCN(c4cccnc4)C3)N2C1=O)c1cc2cc(C(F)(F)P(=O)(O)O)ccc2s1 [Compound 47, (difluoro(2-(((3S,6S,7aR,8aS,9aR)-5-oxo-3-(((R)-1-(pyridin-3-yl)pyrrolidin-3-yl)carbamoyl)decahydro-1H-cyclopropa[d]pyrrolo[1,2-a]azocin-6-yl)carbamoyl)benzo[b]thiophen-5-yl)methyl)phosphonic acid] | < 100 nM | 300 to 3000 nM |
| O=C(N[C@H]1C[C@@H]2C[C@@H]2C[C@H]2CC[C@@H](C(=O)N[C@@H]3CCN(C4COC4)C3)N2C1=O)c1cc2cc(C(F)(F)P(=O)(O)O)ccc2s1 [Compound 48, (difluoro(2-(((3S,6S,7aS,8aR,9aR)-3-(((R)-1-(oxetan-3-yl)pyrrolidin-3-yl)carbamoyl)-5-oxodecahydro-1H-cyclopropa[d]pyrrolo[1,2-a]azocin-6-yl)carbamoyl)benzo[b]thiophen-5-yl)methyl)phosphonic acid] | 100 to 1000 nM | 3000 to 30000 nM |
| N#Cc1cccc(C2CN(C(=O)[C@@H]3CC[C@@H]4C[C@H]5C[C@H]5C[C@H](NC(=O)c5cc6cc(C(F)(F)P(=O)(O)O)ccc6s5)C(=O)N43)C2)c1 [Compound 49, ((2-(((3S,6S,7aS,8aR,9aR)-3-(3-(3-cyanophenyl)azetidine-1-carbonyl)-5-oxodecahydro-1H-cyclopropa[d]pyrrolo[1,2-a]azocin-6-yl)carbamoyl)benzo[b]thiophen-5-yl)difluoromethyl)phosphonic acid] | < 100 nM | 3000 to 30000 nM |
| O=C(N[C@H]1C[C@@H]2C[C@@H]2C[C@H]2CC[C@@H](C(=O)N[C@@H]3CCN(c4cccnn4)C3)N2C1=O)c1cc2cc(C(F)(F)P(=O)(O)O)ccc2s1 [Compound 51, (difluoro(2-(((3S,6S,7aS,8aR,9aR)-5-oxo-3-(((R)-1-(pyridazin-3-yl)pyrrolidin-3-yl)carbamoyl)decahydro-1H-cyclopropa[d]pyrrolo[1,2-a]azocin-6-yl)carbamoyl)benzo[b]thiophen-5-yl)methyl)phosphonic acid] | < 100 nM | 300 to 3000 nM |
| O=C(N[C@H]1C[C@@H]2C[C@@H]2C[C@H]2CC[C@@H](C(=O)N[C@@H]3CCN(c4ccccc4)C3)N2C1=O)c1cc2cc(C(F)(F)P(=O)(O)O)ccc2s1 [Compound 52, (difluoro(2-(((3S,6S,7aS,8aR,9aR)-5-oxo-3-(((R)-1-phenylpyrrolidin-3-yl)carbamoyl)decahydro-1H-cyclopropa[d]pyrrolo[1,2-a]azocin-6-yl)carbamoyl)benzo[b]thiophen-5-yl)methyl)phosphonic acid] | 100 to 1000 nM | 300 to 3000 nM |
| O=C(N[C@H]1C[C@@H]2C[C@@H]2C[C@H]2CC[C@@H](C(=O)NC3CN([C@@H]4CCOC4)C3)N2C1=O)c1cc2cc(C(F)(F)P(=O)(O)O)ccc2s1 [Compound 53, (difluoro(2-(((3S,6S,7aS,8aR,9aR)-5-oxo-3-((1-((R)-tetrahydrofuran-3-yl)azetidin-3-yl)carbamoyl)decahydro-1H-cyclopropa[d]pyrrolo[1,2-a]azocin-6-yl)carbamoyl)benzo[b]thiophen-5-yl)methyl)phosphonic acid] | 100 to 1000 nM | 3000 to 30000 nM |

Second part, the compound after the results:

| IC50 [1] | IC50 [2] | SMILES |
| --- | --- | --- |
| 100 to 1000 nM | 3000 to 30000 nM | C[C@@]12C[C@H](NC(=O)c3cc4cc(C(F)(F)P(=O)(O)O)ccc4s3)C(=O)N3[C@H](CC[C@H]3C(=O)N3CC(c4cccnc4)C3)[C@@H]1C2 [Compound 38, (difluoro(2-(((3S,6S,7aR,8aS,9aR)-7a-methyl-5-oxo-3-(3-(pyridin-3-yl)azetidine-1-carbonyl)decahydro-1H-cyclopropa[d]pyrrolo[1,2-a]azocin-6-yl)carbamoyl)benzo[b]thiophen-5-yl)methyl)phosphonic acid] |
| < 100 nM | 300 to 3000 nM | O=C(N[C@H]1C[C@@H]2C[C@@H]2C[C@H]2CC[C@@H](C(=O)N3CC4(CN(C(=O)Cc5ccccc5)C4)C3)N2C1=O)c1cc2cc(C(F)(F)P(=O)(O)O)ccc2s1 [Compound 41, (difluoro(2-(((3S,6S,7aS,8aR,9aR)-5-oxo-3-(6-(2-phenylacetyl)-2,6-diazaspiro[3.3]heptane-2-carbonyl)decahydro-1H-cyclopropa[d]pyrrolo[1,2-a]azocin-6-yl)carbamoyl)benzo[b]thiophen-5-yl)methyl)phosphonic acid] |
| 100 to 1000 nM | 3000 to 30000 nM | O=C(N[C@H]1C[C@@H]2C[C@@H]2C[C@H]2CC[C@@H](C(=O)N3CCN(C4COC4)CC3)N2C1=O)c1cc2cc(C(F)(F)P(=O)(O)O)ccc2s1 [Compound 43, (difluoro(2-(((3S,6S,7aS,8aR,9aR)-3-(4-(oxetan-3-yl)piperazine-1-carbonyl)-5-oxodecahydro-1H-cyclopropa[d]pyrrolo[1,2-a]azocin-6-yl)carbamoyl)benzo[b]thiophen-5-yl)methyl)phosphonic acid] |
| < 100 nM | 300 to 3000 nM | O=C(N[C@H]1C[C@@H]2C[C@@H]2C[C@H]2CC[C@@H](C(=O)NC3CN(c4ccccn4)C3)N2C1=O)c1cc2cc(C(F)(F)P(=O)(O)O)ccc2s1 [Compound 44, (difluoro(2-(((3S,6S,7aS,8aR,9aR)-5-oxo-3-((1-(pyridin-2-yl)azetidin-3-yl)carbamoyl)decahydro-1H-cyclopropa[d]pyrrolo[1,2-a]azocin-6-yl)carbamoyl)benzo[b]thiophen-5-yl)methyl)phosphonic acid] |
| < 100 nM | 3000 to 30000 nM | O=C(N[C@H]1C[C@@H]2C[C@@H]2C[C@H]2CC[C@@H](C(=O)N3CC(c4cnccn4)C3)N2C1=O)c1cc2cc(C(F)(F)P(=O)(O)O)ccc2s1 [Compound 50, (difluoro(2-(((3S,6S,7aS,8aR,9aR)-5-oxo-3-(3-(pyrazin-2-yl)azetidine-1-carbonyl)decahydro-1H-cyclopropa[d]pyrrolo[1,2-a]azocin-6-yl)carbamoyl)benzo[b]thiophen-5-yl)methyl)phosphonic acid] |
